According to patent US10167262B2, “Herbicidal substituted 3-arylpyrazoles” (FMC CORPORATION, priority 2014, dated 2019):

Test system: barnyardgrass (Echinochloa crus-galli)
Assay: Test A pre-/postemergence greenhouse herbicide test, visual injury rating 0-100
Assay type: in vivo
Settings: Postemergence, 125 g ai/ha
Summary of the method: (§1)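 Scale 0–100 (none to complete control), visual, versus untreated controls after approx. 10 greenhouse days. Pre: directed soil spray at planting. Post: 2–10 cm, one- to two-leaf plants. Non-phytotoxic solvent plus surfactant vehicle.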

| Compound | Plant response rating (0 to 100 scale), Barnyardgrass |
| --- | --- |
| O=C(c1ccccc1)c1cn(C(=O)C2CC2)nc1-c1cc(Cl)cc(Cl)c1 [Compound 26] | 0 |

Same assay, conditions: Postemergence, 500 g ai/ha

| Compound | Plant response rating (0 to 100 scale), Barnyardgrass |
| --- | --- |
| O=C(c1ccccc1)c1cn(C(=O)C2CC2)nc1-c1cc(Cl)cc(Cl)c1 [Compound 26] | 0 |

Same assay, conditions: Preemergence, 125 g ai/ha

| Compound | Barnyardgrass plant response rating (0 = no effect, 100 = complete control) |
| --- | --- |
| O=C(c1ccccc1)c1cn(C(=O)C2CC2)nc1-c1cc(Cl)cc(Cl)c1 [Compound 26] | 0 |

Same assay, conditions: Preemergence, 500 g ai/ha

| Compound | Plant response rating (0 to 100 scale), Barnyardgrass |
| --- | --- |
| O=C(c1ccccc1)c1cn(C(=O)C2CC2)nc1-c1cc(Cl)cc(Cl)c1 [Compound 26] | 0 |

Test system: corn (Zea mays)
Assay: as above
Assay type: in vivo
Settings: Postemergence, 125 g ai/ha
Summary of the method: as §1

| Compound | Plant response rating (0 to 100 scale), Corn |
| --- | --- |
| O=C(c1ccccc1)c1cn(C(=O)C2CC2)nc1-c1cc(Cl)cc(Cl)c1 [Compound 26] | 0 |

Same assay, conditions: Postemergence, 500 g ai/ha

| Compound | Plant response rating (0 to 100 scale), Corn |
| --- | --- |
| O=C(c1ccccc1)c1cn(C(=O)C2CC2)nc1-c1cc(Cl)cc(Cl)c1 [Compound 26] | 0 |

Same assay, conditions: Preemergence, 125 g ai/ha

| Compound | Corn plant response rating (0 = no effect, 100 = complete control) |
| --- | --- |
| O=C(c1ccccc1)c1cn(C(=O)C2CC2)nc1-c1cc(Cl)cc(Cl)c1 [Compound 26] | 0 |

Same assay, conditions: Preemergence, 500 g ai/ha

| Compound | Plant response rating (0 to 100 scale), Corn |
| --- | --- |
| O=C(c1ccccc1)c1cn(C(=O)C2CC2)nc1-c1cc(Cl)cc(Cl)c1 [Compound 26] | 0 |

Test system: giant foxtail (Setaria faberii)
Assay: as above
Assay type: in vivo
Settings: Postemergence, 125 g ai/ha
Summary of the method: as §1

| Compound | Plant response rating (0 to 100 scale), Foxtail, Giant |
| --- | --- |
| O=C(c1ccccc1)c1cn(C(=O)C2CC2)nc1-c1cc(Cl)cc(Cl)c1 [Compound 26] | 0 |

Same assay, conditions: Postemergence, 500 g ai/ha

| Compound | Plant response rating (0 to 100 scale), Foxtail, Giant |
| --- | --- |
| O=C(c1ccccc1)c1cn(C(=O)C2CC2)nc1-c1cc(Cl)cc(Cl)c1 [Compound 26] | 0 |

Same assay, conditions: Preemergence, 125 g ai/ha

| Compound | Foxtail, Giant plant response rating (0 = no effect, 100 = complete control) |
| --- | --- |
| O=C(c1ccccc1)c1cn(C(=O)C2CC2)nc1-c1cc(Cl)cc(Cl)c1 [Compound 26] | 0 |

Same assay, conditions: Preemergence, 500 g ai/ha

| Compound | Plant response rating (0 to 100 scale), Foxtail, Giant |
| --- | --- |
| O=C(c1ccccc1)c1cn(C(=O)C2CC2)nc1-c1cc(Cl)cc(Cl)c1 [Compound 26] | 0 |

Test system: large (Lg) crabgrass (Digitaria sanguinalis)
Assay: as above
Assay type: in vivo
Settings: Postemergence, 125 g ai/ha
Summary of the method: as §1

| Compound | Plant response rating (0 to 100 scale), Crabgrass, Large |
| --- | --- |
| O=C(c1ccccc1)c1cn(C(=O)C2CC2)nc1-c1cc(Cl)cc(Cl)c1 [Compound 26] | 0 |

Same assay, conditions: Postemergence, 500 g ai/ha

| Compound | Plant response rating (0 to 100 scale), Crabgrass, Large |
| --- | --- |
| O=C(c1ccccc1)c1cn(C(=O)C2CC2)nc1-c1cc(Cl)cc(Cl)c1 [Compound 26] | 0 |

Same assay, conditions: Preemergence, 125 g ai/ha

| Compound | Crabgrass, Large plant response rating (0 = no effect, 100 = complete control) |
| --- | --- |
| O=C(c1ccccc1)c1cn(C(=O)C2CC2)nc1-c1cc(Cl)cc(Cl)c1 [Compound 26] | 0 |

Same assay, conditions: Preemergence, 500 g ai/ha

| Compound | Plant response rating (0 to 100 scale), Crabgrass, Large |
| --- | --- |
| O=C(c1ccccc1)c1cn(C(=O)C2CC2)nc1-c1cc(Cl)cc(Cl)c1 [Compound 26] | 0 |

Test system: morningglory (Ipomoea spp.)
Assay: as above
Assay type: in vivo
Settings: Postemergence, 125 g ai/ha
Summary of the method: as §1

| Compound | Plant response rating (0 to 100 scale), Morningglory |
| --- | --- |
| O=C(c1ccccc1)c1cn(C(=O)C2CC2)nc1-c1cc(Cl)cc(Cl)c1 [Compound 26] | 0 |

Same assay, conditions: Postemergence, 500 g ai/ha

| Compound | Plant response rating (0 to 100 scale), Morningglory |
| --- | --- |
| O=C(c1ccccc1)c1cn(C(=O)C2CC2)nc1-c1cc(Cl)cc(Cl)c1 [Compound 26] | 0 |

Same assay, conditions: Preemergence, 125 g ai/ha

| Compound | Morningglory plant response rating (0 = no effect, 100 = complete control) |
| --- | --- |
| O=C(c1ccccc1)c1cn(C(=O)C2CC2)nc1-c1cc(Cl)cc(Cl)c1 [Compound 26] | 0 |

Same assay, conditions: Preemergence, 500 g ai/ha

| Compound | Plant response rating (0 to 100 scale), Morningglory |
| --- | --- |
| O=C(c1ccccc1)c1cn(C(=O)C2CC2)nc1-c1cc(Cl)cc(Cl)c1 [Compound 26] | 0 |

Test system: pigweed (Amaranthus retroflexus)
Assay: as above
Assay type: in vivo
Settings: Postemergence, 125 g ai/ha
Summary of the method: as §1

| Compound | Plant response rating (0 to 100 scale), Pigweed |
| --- | --- |
| O=C(c1ccccc1)c1cn(C(=O)C2CC2)nc1-c1cc(Cl)cc(Cl)c1 [Compound 26] | 40 |

Same assay, conditions: Postemergence, 500 g ai/ha

| Compound | Plant response rating (0 to 100 scale), Pigweed |
| --- | --- |
| O=C(c1ccccc1)c1cn(C(=O)C2CC2)nc1-c1cc(Cl)cc(Cl)c1 [Compound 26] | 80 |

Same assay, conditions: Preemergence, 125 g ai/ha

| Compound | Pigweed plant response rating (0 = no effect, 100 = complete control) |
| --- | --- |
| O=C(c1ccccc1)c1cn(C(=O)C2CC2)nc1-c1cc(Cl)cc(Cl)c1 [Compound 26] | 0 |

Same assay, conditions: Preemergence, 500 g ai/ha

| Compound | Plant response rating (0 to 100 scale), Pigweed |
| --- | --- |
| O=C(c1ccccc1)c1cn(C(=O)C2CC2)nc1-c1cc(Cl)cc(Cl)c1 [Compound 26] | 0 |

Test system: velvetleaf (Abutilon theophrasti)
Assay: as above
Assay type: in vivo
Settings: Postemergence, 125 g ai/ha
Summary of the method: as §1

| Compound | Plant response rating (0 to 100 scale), Velvetleaf |
| --- | --- |
| O=C(c1ccccc1)c1cn(C(=O)C2CC2)nc1-c1cc(Cl)cc(Cl)c1 [Compound 26] | 50 |

Same assay, conditions: Postemergence, 500 g ai/ha

| Compound | Plant response rating (0 to 100 scale), Velvetleaf |
| --- | --- |
| O=C(c1ccccc1)c1cn(C(=O)C2CC2)nc1-c1cc(Cl)cc(Cl)c1 [Compound 26] | 80 |

Same assay, conditions: Preemergence, 125 g ai/ha

| Compound | Velvetleaf plant response rating (0 = no effect, 100 = complete control) |
| --- | --- |
| O=C(c1ccccc1)c1cn(C(=O)C2CC2)nc1-c1cc(Cl)cc(Cl)c1 [Compound 26] | 0 |

Same assay, conditions: Preemergence, 500 g ai/ha

| Compound | Plant response rating (0 to 100 scale), Velvetleaf |
| --- | --- |
| O=C(c1ccccc1)c1cn(C(=O)C2CC2)nc1-c1cc(Cl)cc(Cl)c1 [Compound 26] | 0 |

Test system: wheat (Triticum aestivum)
Assay: as above
Assay type: in vivo
Settings: Postemergence, 125 g ai/ha
Summary of the method: as §1

| Compound | Plant response rating (0 to 100 scale), Wheat |
| --- | --- |
| O=C(c1ccccc1)c1cn(C(=O)C2CC2)nc1-c1cc(Cl)cc(Cl)c1 [Compound 26] | 0 |

Same assay, conditions: Postemergence, 500 g ai/ha

| Compound | Plant response rating (0 to 100 scale), Wheat |
| --- | --- |
| O=C(c1ccccc1)c1cn(C(=O)C2CC2)nc1-c1cc(Cl)cc(Cl)c1 [Compound 26] | 0 |

Same assay, conditions: Preemergence, 125 g ai/ha

| Compound | Wheat plant response rating (0 = no effect, 100 = complete control) |
| --- | --- |
| O=C(c1ccccc1)c1cn(C(=O)C2CC2)nc1-c1cc(Cl)cc(Cl)c1 [Compound 26] | 0 |

Same assay, conditions: Preemergence, 500 g ai/ha

| Compound | Plant response rating (0 to 100 scale), Wheat |
| --- | --- |
| O=C(c1ccccc1)c1cn(C(=O)C2CC2)nc1-c1cc(Cl)cc(Cl)c1 [Compound 26] | 0 |

Test system: barnyardgrass (Echinochloa crus-galli)
Assay: Test B flooded paddy test, plant response rating 0-100
Assay type: in vivo
Settings: Flood, 250 g ai/ha; scale 0 to 100 (0 no effect, 100 complete control); 13 to 15 days
Summary of the method: (§2)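 Under a constant 3 cm flood, test compounds went directly into the paddy water. Following 13 to 15 days of greenhouse growth, treated species and controls were compared by eye.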

| Compound | Plant response rating, Barnyardgrass |
| --- | --- |
| O=C(c1ccccc1)c1cn(C(=O)C2CC2)nc1-c1cc(Cl)cc(Cl)c1 [Compound 26] | 0 |

Test system: ducksalad (Heteranthera limosa)
Assay: as above
Assay type: in vivo
Settings: Flood, 250 g ai/ha; scale 0 to 100 (0 no effect, 100 complete control); 13 to 15 days
Summary of the method: as §2

| Compound | Plant response rating, Ducksalad |
| --- | --- |
| O=C(c1ccccc1)c1cn(C(=O)C2CC2)nc1-c1cc(Cl)cc(Cl)c1 [Compound 26] | 0 |

Test system: rice (Oryza sativa)
Assay: as above
Assay type: in vivo
Settings: Flood, 250 g ai/ha; scale 0 to 100 (0 no effect, 100 complete control); 13 to 15 days
Summary of the method: as §2

| Compound | Plant response rating, Rice |
| --- | --- |
| O=C(c1ccccc1)c1cn(C(=O)C2CC2)nc1-c1cc(Cl)cc(Cl)c1 [Compound 26] | 0 |

Test system: sedge, umbrella (small-flower umbrella sedge, Cyperus difformis)
Assay: as above
Assay type: in vivo
Settings: Flood, 250 g ai/ha; scale 0 to 100 (0 no effect, 100 complete control); 13 to 15 days
Summary of the method: as §2

| Compound | Plant response rating, Sedge, Umbrella |
| --- | --- |
| O=C(c1ccccc1)c1cn(C(=O)C2CC2)nc1-c1cc(Cl)cc(Cl)c1 [Compound 26] | 0 |
